Data: US20220079910A1, “Cancer Treatment Useing Docetaxel by Controlling Peak Plasma Levels” (Modra Pharmaceuticals B.V., priority 2018, published 2022)
Read-outs that look alike come from different tables or passages of the source.

Legend:
[1] = tested on: metastasized castration-resistant prostate cancer (mCRPC); assay: Phase IB/IIA study in mCRPC (M17DOC): PSA response, radiological response, treatment cycles; type: in vivo, human; settings: FIG. 3 / FIG. 6; target range 500-1500 h*ng/mL (FIG. 6)
Description: In FIG. 8 a plot is shown of the number of treatment cycles (with a maximum of 30) in a multicenter clinical phase IB study in mCRPC (M17DOC) of evaluable patients. Patients were scored, as PSA progression (black bars); PSA equal to baseline or decline (<50%) (dark grey bars); PSA response (decline ≥50%) (medium grey bars); clinical response (pain reduction) up to the maximum treatment period permitted in the protocol of 30 weeks (light grey bars).
(§4) A multicenter clinical phase IB/IIA study was conducted in mCRPC (M17DOC), wherein ModraDoc006, an oral docetaxel formulation was combined with ritonavir (ModraDoc006/r), in metastasized castration-resistant prostate cancer (mCRPC).
(§5) The study included patients diagnosed with metastasized castration-resistant prostate cancer (mCRPC), dosed in a bi-daily once weekly (BIDW) dosing schedule at 4 dose levels (see table below).
This study included 20 evaluable patients diagnosed with metastasized castration-resistant prostate cancer (mCRPC), dosed in a bi-daily once weekly (BIDW) dosing schedule at 4 dose levels (see table).

[2] = Phase I trial N07DOW: docetaxel plasma exposure after oral docetaxel with ritonavir; type: in vivo; settings: human, mean±SD; for AUC(0-t): read-out: docetaxel AUC0-48 h
Procedure: (§1) We treated in a phase I trial (N07DOW) cancer patients (n=100) with oral docetaxel in combination with ritonavir. The dose was administered on one day (single dose), once per week. Data presented as mean±standard deviation. If available, kinetic data of 2 cycles per patient were used.

cancer patients [3] = assay: Phase I trial N10BOM: treatment duration, SAEs/DLTs, best response; type: in vivo, human; settings: n=64
Procedure: (§2) We treated in a phase I trial (N10BOM) cancer patients (n=64) with oral docetaxel in combination with ritonavir. The dose was administered bi-daily once per week continuously.
Treatment duration of 8 patients was from 19 up to 55 weeks. These were patients with the following cancers. Head and neck cancer (n=2; PR), non-small cell lung (n=4; SD), colorectal (n=1; SD) and giant cell neuroendocrine carcinoma (n=1; SD). The docetaxel exposure in these patients was:
(§3) The docetaxel exposure in these patients was:
Twentyfive patients had SD or PR as best treatment response.

[4] = weekly docetaxel 35 mg/m2 as 0.5 h intravenous infusion; cited from earlier work
cancer patients [5] = assay: Phase I trial N07DOW: treatment duration, SAEs/DLTs, best response; type: in vivo, human; settings: n=100
Procedure: as §1
Treatment duration of 19 patients was from 19 up to 72 weeks. These were patients with the following cancers. Head and neck (n=1), non-small cell lung (n=8), anal (n=1), primary unknown (n=3), ovarian (n=1), esophageal (n=1), urothelial cell (n=2), leiomyosarcoma (n=1) and neuroendocrine lung carcinoma (n=1). The docetaxel exposure in these patients was:
as §3
Fiftytwo patients had SD (stable disease) (n=42) or PR (partial response) (n=10) as best treatment response.

[6] = cited from earlier work
[7] = Phase I trial N10BOM: docetaxel plasma exposure after oral docetaxel with ritonavir; type: in vivo; settings: human; for AUC(0-t): read-out: docetaxel AUC0-48 h
Procedure: as §2

[8] = Weekly intravenous docetaxel infusion: AUC and CMAX (Baker et al.); type: in vivo, human; settings: IV 35 mg/m2 in 0.5 h vs oral in patients with solid tumors (not prostate)
[9] = IV docetaxel q3w AUC in mCRPC patients vs other tumors (De Vries Schultink et al.); settings: human, in vivo, weekly equivalent, read-out: weekly AUC of IV docetaxel in mCRPC patients (q3w AUC divided by 3)
Procedure: The target minimum AUC threshold in mCRPC patients is highlighted and ranges from about 600-800 h*ng/mL.

[10] = in vivo
Procedure: The described method was successfully applied in clinical studies with oral administration of docetaxel in combination with ritonavir.
Our next step was to investigate this oral treatment schedule in patients with metastatic Castration Resistant Prostate Cancer (mCRPC) in a phase IB/.IIA trial.
as §4, §5

[11] = oral, 10 patients with SAEs and DLTs (≥grade 3)
[12] = oral, 25 patients with SD or PR as best treatment response
[13] = po, oral docetaxel + ritonavir bi-daily once per week, 8 patients with treatment duration 19 up to 55 weeks

AUC(0-t) ([2]; oral, 52 patients with SD or PR as best treatment response): 1.08 ± 1.02 µg·h/mL
Cmax ([2]; oral, 52 patients with SD or PR as best treatment response, read-out: docetaxel CMAX): 0.197 ± 0.186 µg/mL
AUC(0-t) ([2]; po, oral docetaxel + ritonavir, single dose once per week, 19 patients with treatment duration 19 up to 72 weeks): 0.803 ± 0.634 µg·h/mL
Cmax ([2]; po, oral docetaxel + ritonavir, single dose once per week, 19 patients with treatment duration 19 up to 72 weeks, read-out: docetaxel CMAX (peak)): 0.148 ± 0.113 µg/mL
Cmax [7, 12]: 0.14 ± 0.083 µg/mL
AUC(0-t) [7, 12]: 1.24 ± 0.702 µg·h/mL
Cmax [7, 13]: 0.143 ± 0.067 µg/mL
AUC(0-t) [7, 13]: 1.22 ± 0.62 µg·h/mL
CMAX after intravenous administration relative to oral ModraDoc006/r 30-20/100-100 [8]: ten-fold higher
AUC [9]: ~0.6 µg·h/mL
docetaxel clearance in mCRPC patient population vs patients with other solid tumors [10]: higher clearance
Compound: CC(=O)O[C@@]12CO[C@@H]1C[C@H](O)[C@@]1(C)C(=O)[C@H](O)C3=C(C)[C@@H](OC(=O)[C@H](O)[C@@H](NC(=O)OC(C)(C)C)c4ccccc4)C[C@@](O)([C@@H](OC(=O)c4ccccc4)[C@H]21)C3(C)C [docetaxel]
length of treatment (number of cycles) in patients in a target docetaxel AUC range [1]: trending longer
AUC(0-t) ([2]; oral, 15 patients with SAEs and DLTs (≥grade 3)): 2.35 ± 1.45 µg·h/mL
Cmax ([2]; oral, 15 patients with SAEs and DLTs (≥grade 3), read-out: docetaxel CMAX): 0.351 ± 0.244 µg/mL
patients with SAEs and DLTs (possible, probable, definite; ≥grade 3) (cancer patients [3]): 10 patients
patients with SD or PR as best treatment response (cancer patients [3]): Twentyfive
AUC [4]: 1.48 ± 0.41 µg·h/mL
patients with PR (partial response) as best treatment response (cancer patients [5]): 10 patients
patients with SAEs and DLTs (possible, probable, definite; ≥grade 3) (cancer patients [5]): 15 patients
patients with SD (stable disease) as best treatment response (cancer patients [5]): 42 patients
patients with SD or PR as best treatment response (cancer patients [5]): Fiftytwo
ratio of AUCs for IV docetaxel in mCRPC patients vs other tumors ([6]; 1820/3300): 55%
q3w AUC of IV docetaxel in mCRPC patients ([6]; IV, every three weeks): 1.82 µg·h/mL
Cmax [7, 11]: 0.175 ± 0.117 µg/mL
AUC(0-t) [7, 11]: 1.81 ± 1.26 µg·h/mL
